Data taken from patent US10844081B2, “Protected organoboronic acids with tunable reactivity, and methods of use thereof” (The Board of Trustees of the University of Illinois, priority 2015, dated 2020).
Blank lines part the entries; values can stand above or below the compound they belong to.

Columns and labels:
[1] = Solubility of boronates in room temperature THF (NMR vs internal standard); type: physicochemical
Experimental: To determine the solubility of each boronate given in the following table, a concentrated solution was prepared by repeated addition to a small amount (˜200 μL) of room temperature THF in a 7-mL vial until solid no longer dissolved upon stirring. The vials were then allowed to stir at room temperature overnight. […] 100 μL of the mixture was then filtered and had solvent removed. The residue was then taken up in 500 μL DMSO-d6 containing 1,4-dimethoxybenzene (˜0.01 M) as an internal standard and transferred to an NMR tube. The concentrations of the solutions were then determined by integration relative to internal standard. In each case, the measurements are an average of two experiments.

[2] = Hydrolysis of MIDA boronate derivatives under slow release conditions (K3PO4, THF-d8/D2O, 60° C., 1H NMR); type: physicochemical; details: for boronate remaining: at 6 hours; for krel, relative rate constant for hydrolysis with respect to MIDA (krel=1): 5:1 THF-d8:D2O, 7.5 eq. K3PO4, 60° C.; for reduction in the rate of hydrolysis: relative to MIDA boronate
Experimental: Compounds 1-6 (FIG. 4A) were prepared and then characterized in terms of their rates of hydrolysis under defined conditions relative to MIDA compound 4. Reaction conditions were: 5:1 THF-d8:D2O, 0.07 M in boronate, 7.5 eq. K3PO4, 60° C. Reactions were stirred for 0.5 to 2.0 h before being cooled and diluted with DMSO-d6 containing 1,4-dimethoxybenzene as an internal standard. ^1H NMR was taken immediately to determine % boronate remaining. For compounds 1, 2, and 3, n=2 and the average between the two runs is represented in the figure.
To each of twelve 1 mL conical vials equipped with stirring vanes was added 100 μL (0.08 M, 0.008 mmol) of a THF-d8 solution of the indicated boronate, followed by 20 μL (3.0 M, 0.06 mmol, 7.5 eq.) of a D2O solution of K3PO4. Each vial was then capped, shaken briefly to mix, and then stirred in a 60° C. heat block at 800 RPM. At the indicated times, two vials were removed from the heat block, cooled briefly under a stream of air, and then had 680 μL DMSO-d6 containing 1,4-dimethoxybenzene (˜0.008 M) as an internal standard added. The vials were then again briefly capped, shaken to mix, and the solutions were then immediately transferred to NMR tubes and spectra were taken (16 scans, d1=10 s). Time points were taken at 0, 0.5, 1, 1.5, 2.0, 4.0, and 6.0 hours. The solutions for the 0 time points were made directly in the NMR tubes, shaken, and then had spectra obtained. The percentage boronate remaining was determined by average the integration of the aryl protons (which fully resolved from the corresponding aryl protons on the parent boronic acid) across the two runs, except in the case of octyl TIDA boronate, for which the terminal methyl group of the octyl chain was used. Relative rate constants were obtained by assuming pseudo-first order kinetics and plotting the natural log of percentage boronate remaining vs time (ie. ln([boronate]/[boronate]o) vs t) (FIG. 13).
Each time point represents the average of n=2 experiments, except in the case of the N-Cy and N-iPr MIDA, for which n=1.

[3] = slow release hydrolysis conditions

Compound: CN1CC(=O)OB(c2ccc(C=O)o2)OC(=O)C1 [5-Formyl-2-furyl MIDA boronate, reference compound]
solubility in THF [1]: trace

Compound: Cc1ccc([B-]23OC(=O)C(C)(C)[N+]2(C)C(C)(C)C(=O)O3)cc1 (stereo not shown) [p-tolylTIDA boronate, p-Tolyl TIDA Boronate]
solubility in THF (in words) [1]: lack of solubility

Compound: Octyl TIDA Boronate [octylTIDA boronate]
solubility in THF (in words) [1]: completely soluble
hydrolysis after 6 hours (in words) ([2]; after 6 hours, slow release hydrolysis conditions): no measurable hydrolysis

Compound: p-Tolyl DiethylMIDA Boronate
krel, relative rate constant for hydrolysis with respect to MIDA (krel=1) [2]: 0.12

Compound: p-Tolyl DimethylMIDA Boronate
krel, relative rate constant for hydrolysis with respect to MIDA (krel=1) [2]: 0.08
boronate remaining [2, 3]: ~80%
rate of hydrolysis with added phase transfer catalyst (in words) ([2]; free dibutyl ligand or tetrabutylammonium bromide added): hydrolyzed faster than the lone boronate
reduction in the rate of hydrolysis [2]: 12.5 fold

The next lines start with the values.

solubility in THF [1]: 212 mM
Compound: 5-Formyl-2-furanyl TIDA Boronate

boronate remaining [2, 3]: about 25%
Compound: p-Tolyl DibutylMIDA boronate [R=nBu]

krel, relative rate constant for hydrolysis with respect to MIDA (krel=1) [2]: 0.092
reduction in the rate of hydrolysis [2]: 10.9 fold
Compound: p-Tolyl SchMIDA Boronate
